Data reported in PubChem BioAssay AID248 (DTP/NCI, 2004).
“And” between values parts separate entries of the source, which are not always exact repeats. Equal entries are not always repeated. Inconclusive results and toxic doses are left out. No stated cut-off is given here; in the data, active means T/C of 150% or more; inactive means T/C below 125%.

Tested on: L1210 leukemia ip in BDF1 mice, survival T/C
Experiment: NCI In Vivo Anticancer Drug Screen. Data for tumor model L1210 Leukemia (intraperitoneal) in B6D2F1 (BDF1) mice
Conditions: endpoint: mean survival time, higher = longer survival
Summary of the method: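 Tumor cells were implanted, animals were treated, and survival was followed. The result divides the treated measurement by the vehicle-control measurement.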

[1] = dose: 3.13 mg/kg/injection, schedule: Q04DX003 (ip), vehicle: saline
[2] = dose: 6.25 mg/kg/injection, schedule: Q04DX003 (ip), vehicle: saline
[3] = dose: 400.0 mg/kg/injection, schedule: Q01DX001 (ip), vehicle: Klucel (hydroxypropylcellulose) (HPC)
[4] = dose: 100.0 mg/kg/injection, schedule: Q01DX001 (ip), vehicle: saline

Measured: T/C

C=COCC(C)C (tested in a mixture with another compound)
inactive: dose: 1.56 mg/kg/injection, schedule: Q01DX001 (ip), vehicle: other 94 % of control | dose: 3.12 mg/kg/injection, schedule: Q01DX001 (ip), vehicle: other 91 % of control | dose: 3.12 mg/kg/injection, schedule: Q01DX009 (ip), vehicle: other 109 % of control | dose: 3.12 mg/kg/injection, schedule: Q04DX003 (ip), vehicle: Klucel (hydroxypropylcellulose) (HPC) 97 % of control | [1] 92 % of control | dose: 4.7 mg/kg/injection, schedule: Q01DX009 (ip), vehicle: saline 104 % of control | dose: 6.25 mg/kg/injection, schedule: Q01DX001 (ip), vehicle: other 96 % of control | dose: 6.25 mg/kg/injection, schedule: Q01DX009 (ip), vehicle: Klucel (hydroxypropylcellulose) (HPC) 107 % of control | dose: 6.25 mg/kg/injection, schedule: Q01DX009 (ip), vehicle: other 98 % of control | dose: 6.25 mg/kg/injection, schedule: Q04DX003 (ip), vehicle: Klucel (hydroxypropylcellulose) (HPC) 114 % of control | [2] 94 % of control | dose: 7.09 mg/kg/injection, schedule: Q01DX009 (ip), vehicle: Klucel (hydroxypropylcellulose) (HPC) 107 % of control | dose: 9.4 mg/kg/injection, schedule: Q01DX009 (ip), vehicle: saline 102 % of control | dose: 10.6 mg/kg/injection, schedule: Q01DX009 (ip), vehicle: Klucel (hydroxypropylcellulose) (HPC) 107 % of control | dose: 12.5 mg/kg/injection, schedule: Q01DX009 (ip), vehicle: Klucel (hydroxypropylcellulose) (HPC) 93 % of control | dose: 12.5 mg/kg/injection, schedule: Q04DX003 (ip), vehicle: Klucel (hydroxypropylcellulose) (HPC) 111 % of control | dose: 15.0 mg/kg/injection, schedule: Q01DX001 (ip), vehicle: saline 109 % of control | dose: 25.0 mg/kg/injection, schedule: Q04DX003 (ip), vehicle: Klucel (hydroxypropylcellulose) (HPC) 88 % of control | dose: 30.0 mg/kg/injection, schedule: Q01DX001 (ip), vehicle: saline 112 % of control | dose: 60.0 mg/kg/injection, schedule: Q01DX001 (ip), vehicle: saline 95 % of control | dose: 75.0 mg/kg/injection, schedule: Q01DX001 (ip), vehicle: carboxymethylcellulose (CMC) 95 % of control | dose: 75.0 mg/kg/injection, schedule: Q04DX003 (ip), vehicle: saline 108 % of control and 110 % of control | dose: 100.0 mg/kg/injection, schedule: Q01DX001 (ip), vehicle: other 106 % of control and 94 % of control | dose: 150.0 mg/kg/injection, schedule: Q01DX001 (ip), vehicle: carboxymethylcellulose (CMC) 114 % of control | dose: 150.0 mg/kg/injection, schedule: Q04DX003 (ip), vehicle: saline 98 % of control | dose: 300.0 mg/kg/injection, schedule: Q01DX001 (ip), vehicle: carboxymethylcellulose (CMC) 100 % of control | [3] 92 % of control

CC(C)CP(=O)(CC(C)C)CC(C)C
inactive: dose: 6.25 mg/kg/injection, schedule: Q04DX003 (ip), vehicle: saline with Tween-80 98 % of control

C/C(=C\C(=O)O)CC(=O)O
inactive: dose: 25.0 mg/kg/injection, schedule: Q01DX009 (ip), vehicle: water 88 % of control | dose: 25.0 mg/kg/injection, schedule: Q04DX003 (ip), vehicle: water 95 % of control and 105 % of control | dose: 50.0 mg/kg/injection, schedule: Q04DX003 (ip), vehicle: water 104 % of control and 89 % of control | dose: 100.0 mg/kg/injection, schedule: Q01DX009 (ip), vehicle: water 88 % of control | dose: 100.0 mg/kg/injection, schedule: Q04DX003 (ip), vehicle: water 101 % of control and 102 % of control | dose: 200.0 mg/kg/injection, schedule: Q04DX003 (ip), vehicle: water 93 % of control

CCC(C)CC(C)c1ccncc1 (stereo not given)
inactive: dose: 5.0 mg/kg/injection, schedule: Q01DX001 (ip), vehicle: saline 97 % of control | dose: 10.0 mg/kg/injection, schedule: Q01DX001 (ip), vehicle: saline 100 % of control | dose: 20.0 mg/kg/injection, schedule: Q01DX001 (ip), vehicle: saline 100 % of control | dose: 40.0 mg/kg/injection, schedule: Q01DX001 (ip), vehicle: saline 97 % of control | dose: 80.0 mg/kg/injection, schedule: Q01DX001 (ip), vehicle: saline 97 % of control | [4] 97 % of control

CCN(CC)C(=O)C1CC=CCC1 (stereo not given)
inactive: dose: 100.0 mg/kg/injection, schedule: Q04DX002 (ip), vehicle: saline 96 % of control | dose: 200.0 mg/kg/injection, schedule: Q04DX002 (ip), vehicle: saline 107 % of control | dose: 400.0 mg/kg/injection, schedule: Q04DX002 (ip), vehicle: saline 93 % of control

O=C(c1ccccc1)N(O)c1ccccc1
inactive: dose: 75.0 mg/kg/injection, schedule: Q01DX001 (ip), vehicle: saline 93 % of control | dose: 75.0 mg/kg/injection, schedule: Q01DX009 (ip), vehicle: saline 91 % of control | dose: 150.0 mg/kg/injection, schedule: Q01DX001 (ip), vehicle: saline 104 % of control | dose: 150.0 mg/kg/injection, schedule: Q01DX009 (ip), vehicle: saline 98 % of control | dose: 300.0 mg/kg/injection, schedule: Q01DX001 (ip), vehicle: saline 95 % of control | dose: 300.0 mg/kg/injection, schedule: Q01DX009 (ip), vehicle: saline 96 % of control

C/C(CCCCCCCCC#N)=N/NC(N)=O
inactive: dose: 100.0 mg/kg/injection, schedule: Q01DX001 (ip), vehicle: Klucel (hydroxypropylcellulose) (HPC) 103 % of control | dose: 200.0 mg/kg/injection, schedule: Q01DX001 (ip), vehicle: Klucel (hydroxypropylcellulose) (HPC) 106 % of control | [3] 105 % of control

Fc1cccc2c1[nH]c1cc3ccncc3cc12
inactive: dose: 100.0 mg/kg/injection, schedule: Q04DX003 (ip), vehicle: Klucel (hydroxypropylcellulose) (HPC) 98 % of control | dose: 200.0 mg/kg/injection, schedule: Q04DX003 (ip), vehicle: Klucel (hydroxypropylcellulose) (HPC) 90 % of control | dose: 400.0 mg/kg/injection, schedule: Q04DX003 (ip), vehicle: Klucel (hydroxypropylcellulose) (HPC) 93 % of control

O=C(/C=C/c1ccc2c(c1)OCO2)c1ccc2ccccc2c1
inactive: dose: 100.0 mg/kg/injection, schedule: Q04DX002 (ip), vehicle: gum acacia 103 % of control | dose: 200.0 mg/kg/injection, schedule: Q04DX002 (ip), vehicle: gum acacia 96 % of control | dose: 400.0 mg/kg/injection, schedule: Q04DX002 (ip), vehicle: gum acacia 92 % of control

COc1cc2ccc3c(c2cc1OC)C=NCC3
inactive: dose: 1.56 mg/kg/injection, schedule: Q04DX003 (ip), vehicle: saline 107 % of control | dose: 3.13 mg/kg/injection, schedule: Q01DX009 (ip), vehicle: saline 109 % of control | [1] 102 % of control | dose: 6.25 mg/kg/injection, schedule: Q01DX009 (ip), vehicle: saline 105 % of control | [2] 97 % of control | dose: 12.5 mg/kg/injection, schedule: Q04DX003 (ip), vehicle: saline 87 % of control

CC1(C)CCC2=C(C1)Nc1ccc(Cl)cc1NC2c1ccc([N+](=O)[O-])cc1 (stereo not given)
inactive: dose: 100.0 mg/kg/injection, schedule: Q04DX002 (ip), vehicle: Klucel (hydroxypropylcellulose) (HPC) 117 % of control | dose: 200.0 mg/kg/injection, schedule: Q04DX002 (ip), vehicle: Klucel (hydroxypropylcellulose) (HPC) 109 % of control | dose: 400.0 mg/kg/injection, schedule: Q04DX002 (ip), vehicle: Klucel (hydroxypropylcellulose) (HPC) 98 % of control

CC(C)c1ccc(N=Nc2ccc(N(C)C)cc2)cc1
inactive: dose: 100.0 mg/kg/injection, schedule: Q04DX003 (ip), vehicle: saline with Tween-80 95 % of control | dose: 200.0 mg/kg/injection, schedule: Q04DX003 (ip), vehicle: saline with Tween-80 95 % of control | dose: 400.0 mg/kg/injection, schedule: Q04DX003 (ip), vehicle: saline with Tween-80 94 % of control

ClCCN(CCCl)c1ccc(/C=C\c2ccnc3ccccc23)cc1
inactive: dose: 100.0 mg/kg/injection, schedule: Q01DX009 (ip), vehicle: carboxymethylcellulose (CMC) 88 % of control | dose: 100.0 mg/kg/injection, schedule: Q04DX003 (ip), vehicle: other 96 % of control | dose: 200.0 mg/kg/injection, schedule: Q01DX009 (ip), vehicle: other 90 % of control | dose: 200.0 mg/kg/injection, schedule: Q04DX003 (ip), vehicle: other 96 % of control | dose: 400.0 mg/kg/injection, schedule: Q04DX003 (ip), vehicle: other 98 % of control

CC(=O)/C=C(/C(=O)c1ccccc1)c1ccccc1
inactive: dose: 100.0 mg/kg/injection, schedule: Q01DX001 (ip), vehicle: saline with Tween-80 93 % of control | dose: 200.0 mg/kg/injection, schedule: Q01DX001 (ip), vehicle: saline with Tween-80 98 % of control | dose: 400.0 mg/kg/injection, schedule: Q01DX001 (ip), vehicle: saline with Tween-80 97 % of control

Cc1cc(O)cc(=O)[nH]1
inactive: [4] 97 % of control | dose: 200.0 mg/kg/injection, schedule: Q01DX001 (ip), vehicle: saline 100 % of control
